system: not listed separately; assay: Acute toxicity test; details: mouse, in vivo, ip; ddY male mice, intraperitoneally, suspended in 0.5% CMC-Na with 0.1% Tween 80, observed up until 7 days
Experimental: • Animals used: ddY male mice (SLC Japan), 4-5 weeks old, three to five mice per group. • Test method: The compound of the present invention was suspended in 0.5% sodium carboxymethylcellulose (CMC-Na) containing 0.1% Tween 80. It was administered to the mice intraperitoneally in amounts from 1000 mg/kg to 250 mg/kg in groups of three to five mice until no more deaths were observed. The survival of the animals was observed up until 7 days after administration.

Row | Compound | LD50 at 168 h
1 | CCOC(=O)C1=C(c2ccc(-n3ccnc3)cc2)NC(C)=C(C(=O)OC/C=C/c2cccnc2)C1/C=C/c1ccccc1 (stereo not drawn) [Compound 33, 2-[4-(1-imidazolyl)phenyl]-6-methyl-4-[(E)-2-phenylethenyl]-1,4-dihydropyridin-3,5-dicarboxylate 3-ethylester, 5-[(E)-3-(3-pyridyl)-2-propenyl)ester] | > 1000 mg/kg

system: VJ-300 cells; assay: In vitro test of action suppressing proliferation of cancer cells, combined administration of doxorubicin (colony formation), resistant cells; assay type: cell-based, Human; details: ADM alone or ADM + test compound 1 µg/ml, LD50 of ADM relative to ADM alone in KB cells = 1, 7 days incubation, colony count
Experimental: Human rhinopharynx cancer derived KB cells (i.e., sensitive cells) and their multi-drug resistant clone VJ-300 cells (i.e., resistant cells) were used as the test cells. As the incubation solutions, use was made of 10% fetal calf serum (Flow Laboratories) and Eagle MEM medium (Nissui Seiyaku) containing 0.292 mg/ml of L-glutamine (Flow Laboratories). The tests of the action for overcoming resistance to anti-cancer drugs or action for increasing the effect of the anti-cancer drug with the combined administration of the anti-cancer drug doxorubicin (i.e., adriamycin, ADM) and the test compound were performed as follows:
The test cells were suspended in incubation solutions and adjusted to a cell density of about 200 cells/ml. The cell suspensions were injected in 2 ml amounts into petri dishes and were incubated in a CO2 gas incubator (5% CO2, 95% air) at 37°C for 24 hours. Then, 5 µl of a predetermined concentration of the aqueous ADM solution and a predetermined concentration of a DMSO solution of the test compound were added, then the incubation was continued for a further 7 days. After the end of the incubation, the result was immobilized with methanol, Giemsa stained and measured for the number of colonies per dish. The results were used to prepare a volume-reaction curve. […] The results are shown in Table 8 to Table 10 using the concentration of LD50 of ADM in the ADM alone group by KB cells as the resistance degree 1 and calculating the resistances of the following LD50 concentrations as relative ratios. […]

Row | Compound | Degree of resistance for ADM VJ-300
2 | CCOC(=O)C1=C(c2ccc(-n3c(C)nc4cnccc43)cc2)NC(C)=C(C(=O)OC/C=C/c2cccnc2)C1C=C1CCCCC1 (stereo not drawn) [Compound 29, 4-cyclohexylidenemethyl-6-methyl-2-[4-(2-methylimidazo[4,5-c]pyridin-1-yl)phenyl]-1,4-dihydropyridin-3,5-dicarboxylate 3-ethylester, 5-[(E)-3-(3-pyridyl)-2-propenyl]ester] | 1.2
3 | CCOC(=O)C1=C(c2ccc(N3CCN(C)CC3)cc2)NC(C)=C(C(=O)OC/C=C/c2cccnc2)C1/C=C/c1ccccc1 (stereo not drawn) [Compound 30, 6-methyl-2-[4-(4-methylpiperadin-1-yl)phenyl]-1,4-dihydropyridin-4-[(E)-2-phenylethenyl]-3,5-dicarboxylate 3-ethylester, 5-[(E)-3-(3-pyridyl)-2-propenyl]ester] | 1.0
4 | CCOC(=O)C1=C(c2ccc(SC)cc2)NC(C)=C(C(=O)OC/C=C/c2cccnc2)C1/C=C/c1ccccc1 (stereo not drawn) [Compound 31, 6-methyl-2-(4-methylthiophenyl)-1,4-dihydropyridin-4-[(E)-2-phenylethenyl]-3,5-dicarboxylate 3-ethylester, 5-[(E)-3-(3-pyridyl)-2-propenyl]ester] | 2.6
5 | CCOC(=O)C1=C(c2ccc(-n3nnc4ccccc43)cc2)NC(C)=C(C(=O)OC/C=C/c2cccnc2)C1/C=C/c1ccccc1 (stereo not drawn) [Compound 32, 2-[4-(1H-benzotriazol-1-yl)phenyl]-6-methyl-4-[(E)-2-phenylethenyl]-1,4-dihydropyridin-3,5-dicarboxylate 3-ethylester, 5-[(E)-3-(3-pyridyl)-2-propenyl]ester] | 1.4
6 | CCOC(=O)C1=C(c2ccc(-n3ccnc3)cc2)NC(C)=C(C(=O)OC/C=C/c2cccnc2)C1/C=C/c1ccccc1 (stereo not drawn) [Compound 33, 2-[4-(1-imidazolyl)phenyl]-6-methyl-4-[(E)-2-phenylethenyl]-1,4-dihydropyridin-3,5-dicarboxylate 3-ethylester, 5-[(E)-3-(3-pyridyl)-2-propenyl)ester] | 1.4
7 | CCOC(=O)C1=C(c2ccc(N3CCOCC3)cc2)NC(C)=C(C(=O)OC/C=C/c2cccnc2)C1/C=C/c1ccccc1 (stereo not drawn) [Compound 34, 6-methyl-2-(4-morpholinophenyl)-4-[(E)-2-phenylethenyl]-1,4-dihydropyridin-3,5-dicarboxylate 3-ethylester, 5-[(E)-3-(3-pyridyl)-2-propenyl]ester] | 3.0
8 | CCOC(=O)C1=C(c2ccc(-n3ccc4ccccc43)cc2)NC(C)=C(C(=O)OC/C=C/c2cccnc2)C1/C=C/c1ccccc1 (stereo not drawn) [Compound 35, 2-[4-(1-indolyl)phenyl]-6-methyl-4-[(E)-2-phenylethenyl]-1,4-dihydropyridin-3,5-dicarboxylate 3-ethylester, 5-[(E)-3-(3-pyridyl)-2-propenyl]ester] | 3.0
9 | CCOC(=O)C1=C(c2cccc(-n3ccnc3)c2)NC(C)=C(C(=O)OC/C=C/c2cccnc2)C1/C=C/c1ccccc1 (stereo not drawn) [Compound 36, 2-[3-(1-imidazolyl)phenyl]-6-methyl-4-[(E)-2-phenylethenyl]-1,4-dihydropyridin-3,5-dicarboxylate 3-ethylester, 5-[(E)-3-(3-pyridyl)-2-propenyl]ester] | 1.0
10 | CCCCCC1C(C(=O)OC/C=C/c2cccnc2)=C(C)NC(c2cccc(-n3ccnc3)c2)=C1C(=O)OCC (stereo not drawn) [Compound 37, 2-[3-(1-imidazolyl)phenyl]-6-methyl-4-pentyl-1,4-dihydropyridin-3,5-dicarboxylate 3-ethylester, 5-[(E)-3-(3-pyridyl)-2-propenyl]ester] | 2.5
11 | COC(=O)C1=C(c2ccc(-n3ccnc3)cc2)NC(C)=C(C(=O)OC/C=C/c2cccnc2)C1C1CCCCC1 (stereo not drawn) [Compound 38, 4-cyclohexyl-2-[4-(1-imidazolyl)phenyl]-6-methyl-1,4-dihydropyridin-3,5-dicarboxylate 3-methylester, 5-[(E)-3-(3-pyridyl)-2-propenyl]ester] | 2.4
12 | COC(=O)C1=C(c2ccc(-n3ccnc3)cc2)NC(C)=C(C(=O)OC/C=C/c2cccnc2)C1/C=C/c1ccccc1 (stereo not drawn) [Compound 39, 2-[4-(1-imidazolyl)phenyl]-6-methyl-1,4-dihydropyridin-4-[(E)-2-phenylethenyl]-3,5-dicarboxylate 3-methylester, 5-[(E)-3-(3-pyridyl)-2-propenyl]ester] | 1.2
13 | COC(=O)C1=C(c2ccc(-n3ccnc3)cc2)NC(C)=C(C(=O)OC/C=C/c2cccnc2)C1C#Cc1ccccc1 (stereo not drawn) [Compound 40, 2-[4-(1-imidazolyl)phenyl]-6-methyl-4-phenylethynyl-1,4-dihydropyridin-3,5-dicarboxylate 3-methylester, 5-[(E)-3-(3-pyridyl)-2-propenyl]ester] | 2.5
14 | COC(=O)C1=C(c2ccc(-n3c(C)nc4cnccc43)cc2)NC(C)=C(C(=O)OC/C=C/c2cccnc2)C1/C=C/c1ccsc1 (stereo not drawn) [Compound 41] | 7.8
15 | COC(=O)C1=C(c2ccc(-n3c(C)nc4cnccc43)cc2)NC(C)=C(C(=O)OC/C=C/c2cccnc2)C1/C=C/c1ccccc1 (stereo not drawn) [Compound 42, 6-methyl-2-[4-(2-methylimidazo[4,5-c]pyridin-1-yl)phenyl]-4-[(E)-2-phenylethenyl]-1,4-dihydropyridin-3,5-dicarboxylate 3-methylester, 5-[(E)-3-(3-pyridyl)-2-propenyl]ester] | 2.1
16 | CCOC(=O)C1=C(c2ccc(-n3ccnc3)cc2)NC(C)=C(C(=O)OCCCc2cccnc2)C1/C=C/c1ccccc1 (stereo not drawn) [Compound 43, 2-[4-(1-imidazolyl)phenyl]-6-methyl-4-[(E)-2-phenylethenyl]-1,4-dihydropyridin-3,5-dicarboxylate 3-ethylester, 5-[3-(3-pyridyl)propyl]ester] | 1.4
17 | CCCCCC1C(C(=O)OCCCc2cccnc2)=C(C)NC(c2ccc(-n3ccnc3)cc2)=C1C(=O)OCC (stereo not drawn) [Compound 44, 2-[4-(1-imidazolyl)phenyl]-6-methyl-4-pentyl-1,4-dihydropyridin-3,5-dicarboxylate 3-ethylester, 5-[3-(3-pyridyl)propyl]-ester] | 1.4
18 | CCOC(=O)C1=C(c2ccc(-n3c(C)nc4cnccc43)cc2)NC(C)=C(C(=O)OCCCC(=O)c2cccnc2)C1CCCC1CCCCC1 (stereo not drawn) [Compound 45, 4-(3-cyclohexylpropyl)-6-methyl-2-[4-(2-methylimidazo[4,5-c]pyridin-1-yl)phenyl]-1,4-dihydropyridin-3,5-dicarboxylate 3-ethylester, 5-(3-nicotinoylpropyl)ester] | 2.6
19 | CCOC(=O)C1=C(c2ccc(-n3c(C)nc4cnccc43)cc2)NC(C)=C(C(=O)OCCCC(=O)c2cccnc2)C1C=C1CCCCC1 (stereo not drawn) [Compound 46, 4-cyclohexylidenemethyl-6-methyl-2-[4-(2-methylimidazo[4,5-c]pyridin-1-yl)phenyl]-1,4-dihydropyridin-3,5-dicarboxylate 3-ethylester 5-(3-nicotinoylpropyl)ester] | 2.5
20 | CCOC(=O)C1=C(c2ccc(-n3c(C)nc4cnccc43)cc2)NC(C)=C(C(=O)OCCCC(=O)c2cccnc2)C1/C=C/c1ccccc1 (stereo not drawn) [Compound 47, 6-methyl-2-[4-(2-methylimidazo[4,5-c]pyridin-1-yl)phenyl]-4-[(E)-2-phenylethenyl]-1,4-dihydropyridin-3,5-dicarboxylate 3-ethylester, 5-(3-nicotinoylpropyl)ester] | 1.2
21 | CCOC(=O)C1=C(c2ccc(-n3cnc4ccccc43)cc2)NC(C)=C(C(=O)OCCCC(=O)c2cccnc2)C1C=C1CCCCC1 (stereo not drawn) [Compound 48, 4-cyclohexylidenemethyl-6-methyl-2-[4-(1-benzimidazolyl)phenyl]-1,4-dihydropyridin-3,5-dicarboxylate 3-ethylester, 5-(3-nicotinoylpropyl)ester] | 1.7

system: VCR resistant murine leukemia (P388/VCR) cells; assay: In vivo test: overcoming resistance to vincristine in VCR resistant murine leukemia cell bearing mice; design: species or system CDF1 male mice; details: P388/VCR bearing CDF1 mice; VCR 100 µg/kg alone or with compound 100 mg/kg, intraperitoneally for 5 days
Experimental: 10^6 VCR resistant murine leukemia (P388/VCR) cells were transplanted intraperitoneally into groups of six CDF1 male mice, then the compound of the present invention (100 mg/kg) and VCR (100 µg/kg) were administered intraperitoneally for 5 days. […] Effect of overcoming resistance to anti-cancer drug (T/V) % = [(Rate of prolongation of life using VCR and present compound (T/C))/(Rate of prolongation of life using VCR alone (T/C))] x 100 [formula]

Row | Compound | Average days of survival
22 | CCOC(=O)C1=C(c2ccc(-n3ccnc3)cc2)NC(C)=C(C(=O)OCCCc2cccnc2)C1/C=C/c1ccccc1 (stereo not drawn) [Compound 43, 2-[4-(1-imidazolyl)phenyl]-6-methyl-4-[(E)-2-phenylethenyl]-1,4-dihydropyridin-3,5-dicarboxylate 3-ethylester, 5-[3-(3-pyridyl)propyl]ester] | 13.4

same assay, conditions: P388/VCR bearing CDF1 mice; VCR 100 µg/kg alone or with compound 100 mg/kg, intraperitoneally for 5 days; T/C of combination over T/C of VCR alone x 100

Row | Compound | Effect of overcoming resistance T/V (%)
23 | CCOC(=O)C1=C(c2ccc(-n3ccnc3)cc2)NC(C)=C(C(=O)OCCCc2cccnc2)C1/C=C/c1ccccc1 (stereo not drawn) [Compound 43, 2-[4-(1-imidazolyl)phenyl]-6-methyl-4-[(E)-2-phenylethenyl]-1,4-dihydropyridin-3,5-dicarboxylate 3-ethylester, 5-[3-(3-pyridyl)propyl]ester] | 137%

same assay, conditions: P388/VCR bearing CDF1 mice; VCR 100 µg/kg alone or with compound 100 mg/kg, intraperitoneally for 5 days; with respect to controls

Row | Compound | Rate of prolongation of life T/C (%)
24 | CCOC(=O)C1=C(c2ccc(-n3ccnc3)cc2)NC(C)=C(C(=O)OCCCc2cccnc2)C1/C=C/c1ccccc1 (stereo not drawn) [Compound 43, 2-[4-(1-imidazolyl)phenyl]-6-methyl-4-[(E)-2-phenylethenyl]-1,4-dihydropyridin-3,5-dicarboxylate 3-ethylester, 5-[3-(3-pyridyl)propyl]ester] | 141%

— EP0943615A1, “1,4-DIHYDROPYRIDINE DERIVATIVES” (Nikken Chemicals Company, Limited, priority 1996, dated 1998)
